From patent US4849345A, “L-phenylalanine dehydrogenase and use thereof” (priority 1985, dated 1989)
Read-outs that look alike come from different tables or passages of the source.

Experiments:
Type in all cases: biochemical
[1] = biological target: T1, L-phenylalanine dehydrogenase produced by Sporosarcina ureae SCRC-R04 (Sporosarcina ureae, UniProt P97014); assay: Substrate and coenzyme specificity, oxidative deamination (Sporosarcina enzyme); conditions: oxidative deamination; for activity at 10000 µM: substrate concentration 10 mM, L-phenylalanine = 100
T1 sequence (P97014 1-379): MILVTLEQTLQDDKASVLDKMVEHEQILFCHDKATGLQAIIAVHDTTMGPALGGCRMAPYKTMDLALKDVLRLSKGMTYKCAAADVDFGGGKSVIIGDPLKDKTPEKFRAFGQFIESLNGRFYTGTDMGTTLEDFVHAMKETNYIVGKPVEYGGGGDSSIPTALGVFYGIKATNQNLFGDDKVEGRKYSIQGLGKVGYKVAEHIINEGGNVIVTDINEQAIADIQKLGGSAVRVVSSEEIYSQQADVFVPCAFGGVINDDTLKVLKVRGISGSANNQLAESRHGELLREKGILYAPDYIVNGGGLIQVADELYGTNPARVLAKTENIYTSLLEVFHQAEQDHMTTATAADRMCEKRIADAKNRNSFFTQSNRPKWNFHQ
Experimental: The substrate concentration is 10 mM, except for the L-tyrosine concentration which is 1.4 mM.

[2] = biological target: T2, L-phenylalanine dehydrogenase produced by Bacillus sp. SCRC-R79a (Lysinibacillus sphaericus, UniProt P23307); assay: Effect of metal ions and inhibitors on enzyme activity (Bacillus enzyme); design: inoculated with Bacillus sp; endogenous in cells; host or cells: Bacillus sp; enzyme purified in house; conditions: for activity at 1000 µM: read-out: Relative activity
T2 sequence (P23307 1-381): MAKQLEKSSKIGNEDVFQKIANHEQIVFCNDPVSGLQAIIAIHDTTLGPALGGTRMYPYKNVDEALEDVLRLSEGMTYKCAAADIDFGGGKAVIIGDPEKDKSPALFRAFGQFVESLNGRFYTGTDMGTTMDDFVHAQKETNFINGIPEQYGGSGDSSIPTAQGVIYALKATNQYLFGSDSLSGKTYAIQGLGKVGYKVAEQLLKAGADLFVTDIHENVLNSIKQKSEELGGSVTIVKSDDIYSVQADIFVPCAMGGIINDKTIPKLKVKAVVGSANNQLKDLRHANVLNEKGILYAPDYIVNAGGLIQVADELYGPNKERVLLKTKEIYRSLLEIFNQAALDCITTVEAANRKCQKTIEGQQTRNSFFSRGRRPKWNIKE
Experimental: Unless otherwise described, the concentration of metal cations and inhibitors is 1 mM.

[3] = biological target: T1, L-phenylalanine dehydrogenase produced by Sporosarcina ureae SCRC-R04; assay: biochemical; conditions: for activity at 1000 µM: read-out: Relative activity
[4] = biological target: T2, L-phenylalanine dehydrogenase produced by Bacillus sp. SCRC-R79a; assay: Substrate and coenzyme specificity, oxidative deamination (Bacillus enzyme); design: inoculated with Bacillus sp; endogenous in cells; host or cells: Bacillus sp; enzyme purified in house
Experimental: The substrate concentration is 10 mM except for the L-tyrosine concentration which is 1.4 mM.

[5] = 1 mM, not added = 100, listed as Fe^3+, 1000 µM
[6] = read-out: Relative activity (%)
[7] = oxidative deamination, substrate concentration 10 mM, L-phenylalanine = 100, read-out: Relative activity (%)

In the case of `NC(C(=O)O)c1ccccc1` (racemic) [DL-phenylglycine], the “action of the enzyme on the amino acid as substrate (in words)” value (“action of the enzyme on the amino acid” below) [1] is reported as “cannot serve as a substrate”.
With `O=C(O)c1cc(SSc2ccc([N+](=O)[O-])c(C(=O)O)c2)ccc1[N+](=O)[O-]` [5,5'-Dithio-bis(2-nitrobenzoic acid)] the activity at 1000 µM ([2]; 1 mM, not added = 100) was 74%, the “effect on enzyme activity (in words)” value [3] was “inhibited” and the activity at 1000 µM ([3]; 1 mM, not added = 100) was 0%.
With `Oc1cccc2cccnc12` [8-Oxyquinoline] the Relative activity ([2]; 1000 µM) was 96 and the Relative activity ([3]; 1000 µM) was 101.
For `[Ag+]` [Ag^+], the “effect on enzyme activity (in words)” value [2] was “inhibited”, the Relative activity ([2]; 1 mM, not added = 100) was 0% and the “effect on enzyme activity (in words)” value [3] was “inhibited”. For the same molecule, the Relative activity ([3]; 1 mM, not added = 100) was 0%.
`[Al+3]` [Al^3+] gave a Relative activity ([2]; 1 mM, not added = 100) of 99% and a Relative activity ([3]; 1 mM, not added = 100) of 153%.
`[Ba+2]` [Ba^2+] was tested, and the Relative activity ([2]; 1 mM, not added = 100) was 93% and the Relative activity ([3]; 1 mM, not added = 100) was 106%.
Work on `[Ca+2]` [Ca^2+] yielded a Relative activity ([2]; 1 mM, not added = 100) of 92% and a Relative activity ([3]; 1 mM, not added = 100) of 100%.
Work on `[Cd+2]` [Cd^2+] yielded a Relative activity ([2]; 1 mM, not added = 100) of 102% and a Relative activity ([3]; 1 mM, not added = 100) of 70%.
`[Cu+2]` [Cu^2+] showed a Relative activity ([2]; 1 mM, not added = 100) of 85% and a Relative activity ([3]; 1 mM, not added = 100) of 91%.
In the case of `N[C@H](Cc1ccccc1)C(=O)O` [D-phenylalanine], the “action of the enzyme on the amino acid” value ([4]; oxidative deamination) is reported as “cannot serve as a substrate” and the “action of the enzyme on the amino acid” value [1] is reported as “cannot serve as a substrate”.
Molecule `O=C(O)CN(CCN(CC(=O)O)CC(=O)O)CC(=O)O` [EDTA] has an activity at 1000 µM [2] of 120% and an activity at 1000 µM [3] of 119%.
`[Fe+2]` [Fe^2+] showed a Relative activity ([2]; 1 mM, not added = 100, 1000 µM) of 116%, a Relative activity [2, 5] of 117% and a Relative activity ([3]; 1 mM, not added = 100, 1000 µM) of 127%. It also gave a Relative activity [3, 5] of 161%.
In the case of `[Hg+2]` [Hg^2+], the “effect on enzyme activity (in words)” value [2] is reported as “inhibited”, the Relative activity ([2]; 0.01 mM, not added = 100) is reported as 38% and the “effect on enzyme activity (in words)” value [3] is reported as “inhibited”. For the same molecule, the Relative activity ([3]; 0.01 mM, not added = 100) was 0%.
For `NO` [Hydroxylamine], the Relative activity ([2]; 10 mM, not added = 100) was 90% and the Relative activity ([3]; 10 mM, not added = 100) was 173%.
Molecule `O=C(O)CI` [Iodoacetic acid] has an activity at 1000 µM [2] of 127% and an activity at 1000 µM [3] of 91%.
`CCSCC[C@H](N)C(=O)O` [L--Ethionine, L-ethionine] gave an activity at 10000 µM [4, 6] of 3.1% and an activity at 10000 µM [1, 6] of 7%.
With `CC[C@H](C)[C@H](N)C(=O)O` [L--Isoleucine, L-isoleucine] the “action of the enzyme on the amino acid” value ([4]; oxidative deamination) was “cannot serve as a substrate” and the activity at 10000 µM [1, 6] was 0.54%.
For `CC(C)C[C@H](N)C(=O)O` [L--Leucine, L-leucine], the “action of the enzyme on the amino acid” value ([4]; oxidative deamination) was “cannot serve as a substrate” and the activity at 10000 µM [1, 6] was 2.3%.
In the case of `CSCC[C@H](N)C(=O)O` [L--Methionine, L-methionine], the “action of the enzyme on the amino acid” value ([4]; oxidative deamination) is reported as “acting very weakly”, the activity at 10000 µM [4, 6] is reported as 3% and the “action of the enzyme on the amino acid” value [1] is reported as “act very weakly”. For the same molecule, the activity at 10000 µM [1, 6] was 4.1%.
In the case of `CCCC[C@H](N)C(=O)O` [L--Norleucine, L-norleucine], the activity at 10000 µM [4, 7] is reported as 3.9% and the activity at 10000 µM [1, 6] is reported as 15%.
`CCC[C@H](N)C(=O)O` [L--Norvaline, L-norvaline] gave an activity at 10000 µM [4, 7] of 1.3% and an activity at 10000 µM [1, 6] of 6.3%.
In the case of `N[C@@H](Cc1ccccc1)C(=O)O` [L--Phenylalanine, L-phenylalanine], the “action of the enzyme on the amino acid” value ([4]; oxidative deamination) is reported as “acting strongly”, the activity at 10000 µM [4, 7] is reported as 100% and the “action of the enzyme on the amino acid” value [1] is reported as “acting strongly”. For the same molecule, the activity at 10000 µM [1, 6] was 100%.
`N[C@@H](Cc1c[nH]c2ccccc12)C(=O)O` [L--Tryptophan, L-tryptophan] was tested, and the “action of the enzyme on the amino acid” value ([4]; oxidative deamination) was “acting very weakly”, the activity at 10000 µM [4, 7] was 1.6% and the “action of the enzyme on the amino acid” value [1] was “act very weakly”. For the same molecule, the activity at 10000 µM [1, 6] was 6.8%.
`N[C@@H](Cc1ccc(O)cc1)C(=O)O` [L--Tyrosine, L-tyrosine] was tested, and the “action of the enzyme on the amino acid” value ([4]; oxidative deamination) was “acting strongly”, the activity at 1400 µM [4, 6] was 72% and the “action of the enzyme on the amino acid” value [1] was “act very weakly”. For the same molecule, the activity at 1400 µM ([1]; substrate concentration 1.4 mM, read-out: Relative activity (%)) was 5.4%.
With `CC(C)[C@H](N)C(=O)O` [L--Valine, L-valine] the “action of the enzyme on the amino acid” value ([4]; oxidative deamination) was “cannot serve as a substrate” and the activity at 10000 µM [1, 6] was 3.1%.
